Test results: patent US20060040884A1, “Antisense oligonucleotides directed to genes regulated by trapoxin-induced HDAC inhibition” (priority 2001, published 2006)
Square brackets hold non-standard residues; d marks the D form. Peptide text beside a SMILES is read from it. ξ: configuration not given here. Aoe(9ξ) = N[C@@H](CCCCCC(=O)C1CO1)C(=O)O; dPip = O=C(O)[C@H]1CCCCN1

Columns and labels:
Type in all cases: cell-based, human
[1] = system: H1299 cells; experiment: Northern blot analysis of transcripts in TPX-treated H1299 cells
Description: Northern Blotting. […] RNA is separated by electrophoresis on denaturing agarose gels and transferred to nylon membranes. Membranes are hybridized with random hexanucleotide-primed ^32P-labeled DNA fragments that are prepared from the RhoB gene, using standard protocols.
A subset of genes on Incyte cDNA arrays that were differentially expressed in response to HDAC inhibition by TPX treatment were analyzed using Northern blot analyses to confirm that the level of these transcripts changed in response to HDAC inhibition. Total RNA that was isolated from TPX-treated H1299 cells for 0, 6 and 18 h was hybridized with probes that were prepared from sequences of 8 differentially expressed transcripts, including G9 sialidase, IPP isomerase, p21^waf1, Interferon γ-inducible IP-30 (GILT), Hsp 70, urokinase plasminogen activator receptor, and KIAA0797. Although there were differences in the absolute changes in transcript levels that were determined by Northern analysis versus the arrays, the directional trend in the differential expression in response to TPX was confirmed for all of the genes tested.
[…] RNA is separated by electrophoresis on denaturing agarose gels and transferred to nylon membranes. […]
Total RNA is isolated from H1299 cells treated for 6 h with 30 nM TPX or DMSO using Trizol reagent (Life Technologies). The RNA samples are analyzed by Northern blots using conventional methods. […]

[2] = system: p21waf1; experiment: Immunoblot detection of p21waf1 protein induction in response to trapoxin A; details: H1299 cells, 48 h
Description: (§1) Detection of p21^waf1 and RhoB protein induction in response to trapoxin A treatment. […] Whole lysates are prepared in triple detergent lysis buffer (50 mM Tris, pH 8, 150 mM NaCl, 0.02% NaN3, 0.1% SDS, 1% Nonidet P-40, 0.5% sodium deoxycholate, 100 μg/ml phenylmethylsulfonyl fluoride, 1 μg/ml aprotinin) and proteins are separated by SDS-polyacrylamide electrophoresis, electrophoretically transferred to nitrocellulose membranes, and incubated with anti-p21^waf1 (BD Pharmingen, San Jose, Calif.) or anti-RhoB (Santa Cruz Biotechnologies, Santa Cruz Calif.). Immunoreactive proteins are visualized using ECL chemiluminescence system (Amersham Pharmacia Biotech., Piscataway, N.J.).

[3] = system: RhoB; experiment: Western/immunoblot detection of RhoB protein in TPX-treated H1299 cells; details: 30 nM
Description: as §1
H1299 non-small lung carcinoma cells are treated with 30 nM trapoxin A or 0.1% dimethysulphoxide or untreated for 0, 8, 24 and 48 h for RhoB. Whole lysates are prepared in triple detergent lysis buffer (50 mM Tris, pH 8, 150 mM NaCl, 0.02% NaN3, 0.1% SDS, 1% Nonidet P-40, 0.5% sodium deoxycholate, 100 μg/ml phenylmethylsulfonyl fluoride, 1 μg/ml aprotinin) and proteins are separated by SDS-polyacrylamide electrophoresis, electrophoretically transferred to nitrocellulose membranes, and incubated with anti-RhoB (Santa Cruz Biotechnologies, Santa Cruz Calif.). Immunoreactive proteins are visualized using ECL chemiluminescence system (Amersham Pharmacia Biotech., Piscataway, N.J.). […]

For O=C(CCCCC[C@@H]1NC(=O)[C@H]2CCCCN2C(=O)[C@H](Cc2ccccc2)NC(=O)[C@H](Cc2ccccc2)NC1=O)C1CO1 (stereo partly shown) [TPX, Trapoxin A] (cyclo(FF[dPip][Aoe(9ξ)])), the “RhoB mRNA level (Northern analysis)” value ([1]; 30 nM, 6 h) was “up-regulated”, the “Directional trend in differential expression vs arrays (Northern; G9 sialidase, IPP isomerase, p21waf1, IP-30, Hsp 70, UpaR, KIAA0797)” value ([1]; TPX 0, 6 and 18 h) was “confirmed” and the “TPX-induced p21waf1 expression (Western blotting)” value [2] was “decreased”. The “RhoB protein level (Western analysis)” value [3] was “up-regulated”.
